Laboratory results from US20110243854A1, “Methods and systems for identifying modulators of longevity” (The Regents of the University of California, priority 2007, published 2011).
“Also recorded” adds a separate entry of the source.

Experiments:
wild-type flies = conditions: cited from earlier work
[1] = system: flies with reduced life span due to Cu/ZnSOD and MnSOD deficiency; conditions: Cu/ZnSOD and MnSOD deficient flies; cited from earlier work
[2] = system: mitochondrial ROS production; conditions: cited from earlier work
NF1^P1/P2 flies = test: Longevity assay, NF1 mutant flies fed catalytic antioxidants; assay type: in vivo, Drosophila melanogaster; conditions: for increase in survivorship: NF1^P1/P2 flies fed the antioxidant; for effect on life span of NF1 mutant flies (in words): feeding 10 μM, NF1^P1/P2 males and females
Experimental: Life spans were determined at 25° C. and 50% humidity with a 12-h light/dark cycle. Male and female flies were collected under brief CO2 anesthesia 2 to 3 d after eclosion, allowing time for mating. The number of deceased flies was recorded every 2 to 3 d, when flies were transferred to fresh cornmeal agar medium. Both Statview 5.0 and Prism GraphPad software were used for survival data and mortality curves analysis. Survival data were analyzed by Kaplan-Meier analysis in Statview 5.0. The log-rank (Mantel-Cox) test results are presented. Censored data were recorded and analyzed with GraphPad software.
(§1) MnTBAP (Oxis) and MnTDEIP (Aeolus Pharmaceuticals) were dissolved in PBS (Mediatech) before further dilution with cornmeal food to make desired concentration. Red food dye (six drops per 500 ml food) was added to the food to ensure homogeneity.

NF1^P1/P2 mutants = test: Locomotive (up-climbing) recovery after heat stress, antioxidant-fed NF1 mutants; assay type: in vivo, Drosophila melanogaster; conditions: 20 min 37° C. heat stress
Experimental: Locomotive assays were performed on 3- to 4-d-old flies. Flies were placed in 90 mm×20 mm vertical tubes containing a small quantity of cornmeal food at the bottom with a line drawn horizontally 10 mm from the base. Every 5 min, the vials were tapped until the flies were at the bottom of the vials. Then, flies were given 15 s to climb (up-climbing behavior) toward the top of the vial, and the numbers of flies above the 10 mm line were recorded. The locomotive index is the percentage of flies that climbed up after 15 s. After 30 min of baseline recording at 22° C., flies were subjected to a brief 20-min heat treatment at 37° C. and were then returned to 22° C. for recovery. The locomotive index was then plotted against time over the course of the experiment to determine the recovery time (τ).
as §1

w^1118 flies = test: Longevity assay, w^1118 flies fed cAMP analogs; assay type: in vivo, Drosophila melanogaster
Experimental: Male and female flies were collected under brief CO2 anesthesia 2 to 3 d after eclosion, allowing time for mating. The number of deceased flies was recorded every 2 to 3 d, when flies were transferred to fresh cornmeal agar medium. Both Statview 5.0 and Prism GraphPad software were used for survival data and mortality curves analysis. Survival data were analyzed by Kaplan-Meier analysis in Statview 5.0. The log-rank (Mantel-Cox) test results are presented. […] The stock solutions were subsequently diluted into food to make the specific concentrations of 1 μM and 10 μM. Red food dye (six drops per 500 ml food) was added to the supplemented food to insure homogeneity.

Molecule	effect on life span (in words) (wild-type flies)	effect on life span (in words) [1]	increase in survivorship (NF1^P1/P2 flies)	effect on life span of NF1 mutant flies (in words) (NF1^P1/P2 flies)	recovery of locomotive performance after heat stress (in words) (NF1^P1/P2 mutants)	also measured
[Cl-].[Mn+3].[O-]c1ccccc1C=NCCN=Cc1ccccc1[O-] [EUK-8, manganese N,N′-bis(salicyidene) ethylenediamine chloride]	shortened their life spans	partially restored normal life span	–	–	–	–
COC1=C(OC)C(=O)C(CCCCCCCCCC[P+](c2ccccc2)(c2ccccc2)c2ccccc2)=C(C)C1=O [MitoQ]	shortened their life spans	partially restored normal life span	–	–	–	–
O=C(O)c1ccc(-c2c3nc(c(-c4ccc(C(=O)O)cc4)c4ccc([n-]4)c(-c4ccc(C(=O)O)cc4)c4nc(c(-c5ccc(C(=O)O)cc5)c5ccc2[n-]5)C=C4)C=C3)cc1.[Mn+3] [MnTBAP, Mn(III)tetrakis(4-benzoic acid) porphyrin]	–	–	approximately 50%	restores normal life span; also recorded: extended	enhanced the recovery rate of locomotive performance; also recorded: rescued delayed heat stress recovery time	mitochondrial ROS production and oxidative damage (in words) [2]: reduce mitochondrial ROS production and oxidative damage
CCCC(=O)Nc1ncnc2c1ncn2[C@@H]1O[C@@H]2COP(=O)(O)O[C@H]2[C@H]1OC(=O)CCC [db-cAMP, dibutyryl-cAMP]	–	–	–	–	–	increase in median life span (w^1118 flies; adult males fed 1 μM or 10 μM): 30%; increase in life span (w^1118 flies; females fed 1 μM): 60%; increase in life span (w^1118 flies; females fed 10 μM): > 100%; effect on life span of w^1118 flies (in words) (w^1118 flies; male and female w^1118 flies, 1 μM and 10 μM in food): extends life spans
tetrakis(1,3-diethyl imidazolium-2-yl) meso-substituted manganoporphyrin [MnTDEIP]	–	–	approximately 50%	extended	enhanced the recovery rate of locomotive performance; also recorded: rescued delayed heat stress recovery time	–
